# Results reported in patent publication US20260014179A1, “OLIGOSACCHARIDE COMPOSITION FOR USE IN THE REDUCTION OF THE LEVEL OF BRANCHED SHORT CHAIN FATTY ACIDS” (priority 2022, published 2026).
# System: microbiota present in the faecal samples
# Assay: Oligosaccharide distribution (HPAEC-PAD peak areas) during faecal fermentation
# Settings: in Comp. Ex. 1, 0 h
# Source text: HPAEC-PAD (high performance anion exchange chromatography) equipped with a PA-1 column was used for separation of mono- and oligosaccharides of the different samples. Efforts were made to achieve a separation quality described in van Leeuwen et al., Carbohydrate Research 2016, 425, 48-58. […] The samples as used for GPC were 100-fold diluted with DMSO before injection.
# The distribution of oligosaccharides in the mixtures was also monitored over this time period using the method described above in relation to Table 2.
row,Structure (SMILES),Peak areas
1,O=C[C@H](O)[C@@H](O)[C@H](O)[C@H](O)CO [Glucose],19.5
2,O=C[C@H](O)[C@@H](O)[C@@H](O)[C@H](O)CO [Galactose],0.5
3,OC[C@H]1O[C@@H](O[C@H]2[C@H](O)[C@@H](O)C(O)O[C@@H]2CO)[C@H](O)[C@@H](O)[C@H]1O (stereo partly drawn) [Lactose],48.4

# Same assay, conditions: in Comp. Ex. 1, 6 h, Donor A
row,Structure (SMILES),Peak areas
1,O=C[C@H](O)[C@@H](O)[C@H](O)[C@H](O)CO [Glucose],2.9
2,O=C[C@H](O)[C@@H](O)[C@@H](O)[C@H](O)CO [Galactose],2.4
3,OC[C@H]1O[C@@H](O[C@H]2[C@H](O)[C@@H](O)C(O)O[C@@H]2CO)[C@H](O)[C@@H](O)[C@H]1O (stereo partly drawn) [Lactose],0.7

# Same assay, conditions: in Comp. Ex. 1, 6 h, Donor B
row,Structure (SMILES),Peak areas
1,O=C[C@H](O)[C@@H](O)[C@H](O)[C@H](O)CO [Glucose],34.1
2,O=C[C@H](O)[C@@H](O)[C@@H](O)[C@H](O)CO [Galactose],45.1
3,OC[C@H]1O[C@@H](O[C@H]2[C@H](O)[C@@H](O)C(O)O[C@@H]2CO)[C@H](O)[C@@H](O)[C@H]1O (stereo partly drawn) [Lactose],1.9

# Same assay, conditions: in Comp. Ex. 1, 6 h, Donor C
row,Structure (SMILES),Peak areas
1,O=C[C@H](O)[C@@H](O)[C@H](O)[C@H](O)CO [Glucose],0.2
2,O=C[C@H](O)[C@@H](O)[C@@H](O)[C@H](O)CO [Galactose],0.7
3,OC[C@H]1O[C@@H](O[C@H]2[C@H](O)[C@@H](O)C(O)O[C@@H]2CO)[C@H](O)[C@@H](O)[C@H]1O (stereo partly drawn) [Lactose],0.4

# Same assay, conditions: in Comp. Ex. 1, 24 h, Donor A
row,Structure (SMILES),Peak areas
1,O=C[C@H](O)[C@@H](O)[C@H](O)[C@H](O)CO [Glucose],0.0
2,O=C[C@H](O)[C@@H](O)[C@@H](O)[C@H](O)CO [Galactose],0.0
3,OC[C@H]1O[C@@H](O[C@H]2[C@H](O)[C@@H](O)C(O)O[C@@H]2CO)[C@H](O)[C@@H](O)[C@H]1O (stereo partly drawn) [Lactose],0.4

# Same assay, conditions: in Comp. Ex. 1, 24 h, Donor B
row,Structure (SMILES),Peak areas
1,O=C[C@H](O)[C@@H](O)[C@H](O)[C@H](O)CO [Glucose],0.1
2,O=C[C@H](O)[C@@H](O)[C@@H](O)[C@H](O)CO [Galactose],0.1
3,OC[C@H]1O[C@@H](O[C@H]2[C@H](O)[C@@H](O)C(O)O[C@@H]2CO)[C@H](O)[C@@H](O)[C@H]1O (stereo partly drawn) [Lactose],0.5

# Same assay, conditions: in Comp. Ex. 1, 24 h, Donor C
row,Structure (SMILES),Peak areas
1,O=C[C@H](O)[C@@H](O)[C@H](O)[C@H](O)CO [Glucose],0.0
2,O=C[C@H](O)[C@@H](O)[C@@H](O)[C@H](O)CO [Galactose],0.0
3,OC[C@H]1O[C@@H](O[C@H]2[C@H](O)[C@@H](O)C(O)O[C@@H]2CO)[C@H](O)[C@@H](O)[C@H]1O (stereo partly drawn) [Lactose],0.4

# Same assay, conditions: in Comp. Ex. 1, 48 h, Donor A
row,Structure (SMILES),Peak areas
1,O=C[C@H](O)[C@@H](O)[C@H](O)[C@H](O)CO [Glucose],0.0
2,O=C[C@H](O)[C@@H](O)[C@@H](O)[C@H](O)CO [Galactose],0.0
3,OC[C@H]1O[C@@H](O[C@H]2[C@H](O)[C@@H](O)C(O)O[C@@H]2CO)[C@H](O)[C@@H](O)[C@H]1O (stereo partly drawn) [Lactose],0.3

# Same assay, conditions: in Comp. Ex. 1, 48 h, Donor B
row,Structure (SMILES),Peak areas
1,O=C[C@H](O)[C@@H](O)[C@H](O)[C@H](O)CO [Glucose],0.0
2,O=C[C@H](O)[C@@H](O)[C@@H](O)[C@H](O)CO [Galactose],0.0
3,OC[C@H]1O[C@@H](O[C@H]2[C@H](O)[C@@H](O)C(O)O[C@@H]2CO)[C@H](O)[C@@H](O)[C@H]1O (stereo partly drawn) [Lactose],0.5

# Same assay, conditions: in Comp. Ex. 1, 48 h, Donor C
row,Structure (SMILES),Peak areas
1,O=C[C@H](O)[C@@H](O)[C@H](O)[C@H](O)CO [Glucose],0.0
2,O=C[C@H](O)[C@@H](O)[C@@H](O)[C@H](O)CO [Galactose],0.0
3,OC[C@H]1O[C@@H](O[C@H]2[C@H](O)[C@@H](O)C(O)O[C@@H]2CO)[C@H](O)[C@@H](O)[C@H]1O (stereo partly drawn) [Lactose],0.3

# Same assay, conditions: in Example 2, 0 h
row,Structure (SMILES),Peak areas
1,O=C[C@H](O)[C@@H](O)[C@H](O)[C@H](O)CO [Glucose],17.5
2,O=C[C@H](O)[C@@H](O)[C@@H](O)[C@H](O)CO [Galactose],1.3
3,OC[C@H]1O[C@@H](O[C@H]2[C@H](O)[C@@H](O)C(O)O[C@@H]2CO)[C@H](O)[C@@H](O)[C@H]1O (stereo partly drawn) [Lactose],30.9

# Same assay, conditions: in Example 2, 6 h, Donor A
row,Structure (SMILES),Peak areas
1,O=C[C@H](O)[C@@H](O)[C@H](O)[C@H](O)CO [Glucose],2.6
2,O=C[C@H](O)[C@@H](O)[C@@H](O)[C@H](O)CO [Galactose],2.1
3,OC[C@H]1O[C@@H](O[C@H]2[C@H](O)[C@@H](O)C(O)O[C@@H]2CO)[C@H](O)[C@@H](O)[C@H]1O (stereo partly drawn) [Lactose],0.3

# Same assay, conditions: in Example 2, 6 h, Donor B
row,Structure (SMILES),Peak areas
1,O=C[C@H](O)[C@@H](O)[C@H](O)[C@H](O)CO [Glucose],26.9
2,O=C[C@H](O)[C@@H](O)[C@@H](O)[C@H](O)CO [Galactose],47.3
3,OC[C@H]1O[C@@H](O[C@H]2[C@H](O)[C@@H](O)C(O)O[C@@H]2CO)[C@H](O)[C@@H](O)[C@H]1O (stereo partly drawn) [Lactose],5.3

# Same assay, conditions: in Example 2, 6 h, Donor C
row,Structure (SMILES),Peak areas
1,O=C[C@H](O)[C@@H](O)[C@H](O)[C@H](O)CO [Glucose],0.3
2,O=C[C@H](O)[C@@H](O)[C@@H](O)[C@H](O)CO [Galactose],0.8
3,OC[C@H]1O[C@@H](O[C@H]2[C@H](O)[C@@H](O)C(O)O[C@@H]2CO)[C@H](O)[C@@H](O)[C@H]1O (stereo partly drawn) [Lactose],0.6

# Same assay, conditions: in Example 2, 24 h, Donor A
row,Structure (SMILES),Peak areas
1,O=C[C@H](O)[C@@H](O)[C@H](O)[C@H](O)CO [Glucose],0.0
2,O=C[C@H](O)[C@@H](O)[C@@H](O)[C@H](O)CO [Galactose],0.0
3,OC[C@H]1O[C@@H](O[C@H]2[C@H](O)[C@@H](O)C(O)O[C@@H]2CO)[C@H](O)[C@@H](O)[C@H]1O (stereo partly drawn) [Lactose],0.3

# Same assay, conditions: in Example 2, 24 h, Donor B
row,Structure (SMILES),Peak areas
1,O=C[C@H](O)[C@@H](O)[C@H](O)[C@H](O)CO [Glucose],0.0
2,O=C[C@H](O)[C@@H](O)[C@@H](O)[C@H](O)CO [Galactose],0.1
3,OC[C@H]1O[C@@H](O[C@H]2[C@H](O)[C@@H](O)C(O)O[C@@H]2CO)[C@H](O)[C@@H](O)[C@H]1O (stereo partly drawn) [Lactose],0.4

# Same assay, conditions: in Example 2, 24 h, Donor C
row,Structure (SMILES),Peak areas
1,O=C[C@H](O)[C@@H](O)[C@H](O)[C@H](O)CO [Glucose],0.0
2,O=C[C@H](O)[C@@H](O)[C@@H](O)[C@H](O)CO [Galactose],0.0
3,OC[C@H]1O[C@@H](O[C@H]2[C@H](O)[C@@H](O)C(O)O[C@@H]2CO)[C@H](O)[C@@H](O)[C@H]1O (stereo partly drawn) [Lactose],0.4

# Same assay, conditions: in Example 2, 48 h, Donor A
row,Structure (SMILES),Peak areas
1,O=C[C@H](O)[C@@H](O)[C@H](O)[C@H](O)CO [Glucose],0.0
2,O=C[C@H](O)[C@@H](O)[C@@H](O)[C@H](O)CO [Galactose],0.0
3,OC[C@H]1O[C@@H](O[C@H]2[C@H](O)[C@@H](O)C(O)O[C@@H]2CO)[C@H](O)[C@@H](O)[C@H]1O (stereo partly drawn) [Lactose],0.3

# Same assay, conditions: in Example 2, 48 h, Donor B
row,Structure (SMILES),Peak areas
1,O=C[C@H](O)[C@@H](O)[C@H](O)[C@H](O)CO [Glucose],0.0
2,O=C[C@H](O)[C@@H](O)[C@@H](O)[C@H](O)CO [Galactose],0.0
3,OC[C@H]1O[C@@H](O[C@H]2[C@H](O)[C@@H](O)C(O)O[C@@H]2CO)[C@H](O)[C@@H](O)[C@H]1O (stereo partly drawn) [Lactose],0.5

# Same assay, conditions: in Example 2, 48 h, Donor C
row,Structure (SMILES),Peak areas
1,O=C[C@H](O)[C@@H](O)[C@H](O)[C@H](O)CO [Glucose],0.0
2,O=C[C@H](O)[C@@H](O)[C@@H](O)[C@H](O)CO [Galactose],0.0
3,OC[C@H]1O[C@@H](O[C@H]2[C@H](O)[C@@H](O)C(O)O[C@@H]2CO)[C@H](O)[C@@H](O)[C@H]1O (stereo partly drawn) [Lactose],0.3
